Laboratory results taken from patent publication US7238727B2, “Compositions for improving lipid metabolism” (Chugai Seiyaku Kabushiki Kaisha, priority 2000, dated 2007).

Columns and labels:
Type in all cases: in vivo
[1] = test system: matured rat models fed with high-fat diets; test: Peritesticular adipose tissue weight in rats fed a high-fat diet; settings: for adipose tissue weight less than that of casein+lard group / mean adipose tissue weight relative to casein+lard group: 3.0% L-valine + 8.4% lard; for peritesticular adipose tissue weight: feed with 3.0% L-valine + 8.4% lard, mean±standard deviation, n=3
Procedure: To evaluate the effects of valine on lipid metabolism, the effects of the administration of L-valine containing feeds were examined on matured rat models fed with high-fat diets.
18 Crj:CD(SD) IGS male rats aged 12 weeks (body weight: 420 to 464 g, 443 g on average) were pre-fed for 5 days (not more than 4 animals/cage, temperature: 20 to 26° C., humidity: 30 to 70%, illumination: 8:00 to 20:00). During the pre-feeding period, the animals were maintained on a feed (constant feeding) and water (using a water supplier) as desired.
(§1) After the completion of the pre-feeding, the animals were divided into 6 groups depending on feed and administration period. Rats of valine+lard groups were fed with a solid feed prepared by adding 8.4% lard (CAMERIA: manufactured by Romi Smilfood B. V.) and 3.0% L-valine (JP, manufactured by Ajinomoto Co., Inc.) to a conventional feed (CMF: manufactured by Oriental Yeast Co., Ltd.) for 2 or 4 weeks. Animals of casein+lard groups (i.e., control groups) were fed with a solid feed prepared by adding 8.4% lard and 3.0% milk-origin casein (manufactured by Wako Pure Chemical Industries, Ltd.) to the conventional feed (CMF: manufactured by Oriental Yeast Co., Ltd.) for 2 or 4 weeks. Animals of normal food groups were fed with a solid feed which was the conventional feed (CMF: manufactured by Oriental Yeast Co., Ltd.) for 2 or 4 weeks. During the experimental period, the rats of each group were maintained on the feed (constant feeding) and water (using a water supplier) as desired. Each group had 3 rats which were fed in a single cage (temperature: 20 to 26° C., humidity: 30 to 70%, illumination: 8:00 to 20:00) throughout the experimental period.
(§2) After 2 or 4 weeks, the blood samples of the animals of each group were collected from the abdominal aorta and then the animals were sacrificed by bleeding under etherization followed by autopsy. As intraperitoneal adipose tissue, the adipose tissue around the left testis and epididymis was weighed. The collected blood samples were subjected to a serobiochemical examination and the like.

[2] = test system: matured rat models fed with high-fat diets; test: Serobiochemical examination of rats fed a high-fat diet
Text: as §1, §2

[3] = test system: matured rat models fed with high-fat diets; test: Intraperitoneal adipose tissue area by abdominal CT scanning; settings: 4 weeks-feeding group
Text: as §1
22 days after the initiation of the experiment, one rat of each of the 4 weeks-feeding groups was subjected to the abdominal CT scanning (slice width: 5 mm) under anesthesia with Nembutal. From the CT image thus obtained, the intraperitoneal adipose tissue area was determined as the mean of the intraperitoneal adipose-containing areas in posterior 4 slices from the sites where no kidney was observed.

[4] = test system: rabbit atherosclerotic model; test: Fatty liver by naked eye and HE stained liver sections; settings: 0.2% cholesterol + 3.0% L-valine, 13 weeks
Procedure: (§3) Nine New Zealand White male rabbits aged 8 weeks (average body weight, 2.06 kg) were divided into three groups (n=3) by feed and fed for 13 weeks (temperature, 20 to 26° C.; humidity, 30 to 70%; illumination, 8:00 to 20:00). The untreated group was given an ordinary feed (NOSAN feed for laboratory animals, LABOR STOCK, manufactured by Nihon Nosan Kogyo, K.K.). As for the atherosclerotic model, the control group was given the ordinary feed plus 0.2% cholesterol (manufactured by Wako Pure Chemical Industries, Ltd.), and the valine group was given the ordinary feed plus 0.2% cholesterol plus 3.0% L-valine (JP, manufactured by Ajinomoto Co., Inc.). Throughout the experiment, the rabbits of each group were maintained on the feed (constant feeding) and water (using a water supplier) as desired. After 13 weeks, blood samples were collected from the abdominal aorta of the animals of each group under etherization and the animals were then sacrificed by bleeding. By subsequent autopsy, the degree of atherosclerotic lesion (plaque formation) in thoracic aorta and the degree of fatty liver were compared. Sections of the thoracic aorta and the liver were also prepared and examined histopathologically for intimal thickening and the formation of fat droplets.

[5] = test system: rabbit atherosclerotic model; test: Plaque formation in aortic arch specimens; set-up: key to plaque formation in specimens of aortic arch: +: visible slight plaque formation; ++: visible moderate plaque formation; −: no visible plaque formation; settings: 13 weeks; for plaque formation in specimens of aortic arch: feed with 0.2% cholesterol + 3.0% L-valine
Procedure: as §3, with “In order to evaluate the efficacy of valine on atherosclerosis and fatty liver, an L-valine containing feed was administered to a rabbit atherosclerotic model and its effect was investigated. Nine” for “Nine”

[6] = test system: rabbit atherosclerotic model; test: Intimal thickening in HE stained thoracic aorta sections; settings: 0.2% cholesterol + 3.0% L-valine, 13 weeks
Procedure: as §3, with “droplets. Sections of the thoracic aorta were HE stained (hematoxylin-eosin stained).” for “droplets.”

[7] = 2 weeks feeding, mean±standard deviation, n=3
[8] = 4 weeks feeding, mean±standard deviation, n=3

## CC(C)[C@H](N)C(=O)O [valine, L-valine]
[1]; 2 weeks feeding
  adipose tissue weight compared with normal food group: smaller than that of the normal food group
  adipose tissue weight less than that of casein+lard group: 30%
  mean adipose tissue weight relative to casein+lard group: about 0.70 times
  peritesticular adipose tissue weight: 2.55 ± 0.38 g
[1]; 4 weeks feeding
  adipose tissue weight compared with normal food group: smaller than that of the normal food group
  adipose tissue weight less than that of casein+lard group: 26%
  mean adipose tissue weight relative to casein+lard group: about 0.74 times
  peritesticular adipose tissue weight: 2.92 ± 0.40 g
[1]; both 2 weeks and 4 weeks feeding, feed intake almost the same
  increase in the adipose tissue weight: inhibited
[2]; 2 weeks feeding
  mean free fatty acid level relative to casein+lard group: about 0.73 times
  mean lipid peroxide level relative to casein+lard group: about 0.42 times
  mean triacylglycerol level relative to casein+lard group: about 0.54 times
  mean β-lipoprotein level relative to casein+lard group: about 0.53 times
[2]; [7]
  mean serum free fatty acid level: 0.35±0.06 mEq/L
  mean serum lipid peroxide level: 1.1 ± 0.7 nmol/dL
  mean serum triacylglycerol level: 52.0 ± 21.9 mg/dL
  mean serum β-lipoprotein level: 33.3 ± 14.5 mg/dL
[2]; 4 weeks feeding
  mean free fatty acid level relative to casein+lard group: about 0.82 times
  mean triacylglycerol level relative to casein+lard group: about 0.60 times
  mean β-lipoprotein level relative to casein+lard group: about 0.62 times
[2]; [8]
  mean serum free fatty acid level: 0.36±0.11 mEq/L
  mean serum triacylglycerol level: 67.7 ± 33.5 mg/dL
  mean serum β-lipoprotein level: 41.0 ± 10.8 mg/dL
[3]; CT
  increase in the intraperitoneal adipose tissue area versus casein+lard group: more inhibited
[3]; CT 22 days after initiation, n=1
  intraperitoneal adipose tissue area: 3.2 cm^2
[3]; CT, n=1
  intraperitoneal adipose tissue relative to casein+lard group: about 0.65 times
[4]
  yellowing of the liver (fatty liver), naked eye: no yellowing of the liver was observed, or yellowing of the liver was visible but to a lesser extent than in the control group
[4]; HE stained liver sections
  fat droplets and swelling of hepatocytes: hepatocytes contained such a small number of fat droplets that they experienced no visible swelling
[5]; 0.2% cholesterol + 3.0% L-valine, n=3
  plaque formation compared with control group: no plaque formation was visible, or plaque formation was visible but to a lesser extent than in the control group
[5]; animal 1
  plaque formation in specimens of aortic arch: −
[5]; animal 2
  plaque formation in specimens of aortic arch: −
[5]; animal 3
  plaque formation in specimens of aortic arch: +
[6]
  intimal thickening of thoracic aorta: intimal thickening was hardly visible
